Structures are written as SMILES. ≈ marks a conversion by molar mass, not a printed value. Where only a bound is given, the exact number is not on record here.

This note sets out measurements from PubChem BioAssay AID1996.

For the data set the following is noted: buffer; pH 7.4; 200.0 µM.
Regarding `CCCc1ccc2oc(C(=O)N(C)Cc3nccs3)c(C)c2c1`, the solubility (kinetic) (in general, solubility judged after dilution from a stock solution rather than from solid) was determined as 0.014 mg/mL (≈ 42.6 µM).
On to `C=Cn1cc[n+](CC(=O)c2ccc(Br)cc2)c1.[Br-]`, for which the solubility (kinetic) is over 0.0558 mg/mL.
`COC(=O)c1sccc1NC(=O)Nc1cc(C)ccc1OC` yielded a kinetic solubility of 0.0111 mg/mL (≈ 34.6 µM).
Under `O=C(COC(=O)Cc1ccccc1[N+](=O)[O-])NCC1CCCCC1` stands 0.0108 mg/mL (≈ 32.3 µM).
`Nc1ncc(S(=O)(=O)c2ccc(Cl)cc2)c(N)n1` returned a solubility (kinetic) of 0.0314 mg/mL (≈ 110 µM). This solubility kinetic lies about 2.9-fold higher than the previous one.
`COc1cc(C(=O)NCCOc2ccccc2C)cc(OC)c1OC` displayed a kinetic solubility of 0.0488 mg/mL (≈ 141 µM).
The result for `CC(C)c1ccc(NS(=O)(=O)c2ccc(N3C(=O)CCC3=O)cc2)cc1` reads 0.0436 mg/mL (≈ 117 µM); that for `CN(C)Cc1c(O)ccc2c(=O)c(-c3ccc(Cl)cc3)coc12`, over 0.0495 mg/mL.
In turn, `O=C(CCC(=O)N1CCCC1)N1CCCC1` returned a solubility (kinetic) of over 0.0336 mg/mL.
The result for `Cc1ccccc1CN1CCN(CC2CC2)CC1CCO` (configuration not stated) reads over 0.0433 mg/mL; that for `Cn1ccc(/C=N/N=C2/NC(=O)CS2)n1`, over 0.0335 mg/mL.
Consider `CC1CN(c2nc(Nc3ccccc3)nc(N)c2[N+](=O)[O-])CC(C)O1` (configuration not stated), for which the kinetic solubility was 0.0481 mg/mL (≈ 140 µM).
Compound `N#CC(C#N)=C/C=C(\Nc1ccc(Cl)cc1)c1ccc(Cl)cc1` gave a solubility (kinetic) of over 0.051 mg/mL.
As for `C=CCn1ccc2c([N+](=O)[O-])cccc2c1=O`, the solubility (kinetic) was found to be 0.0302 mg/mL (≈ 131 µM).
Under `Cc1ccc(-c2cc(=O)[nH]c(NCc3ccccc3)n2)cc1` stands 0.0003 mg/mL (≈ 1.03 µM); under `O=C(NCc1ccccc1)c1csc(-c2cccnc2)n1`, over 0.0443 mg/mL; under `O=C(NC1CCN(Cc2cccc([N+](=O)[O-])c2)CC1)c1ccccc1`, 0.0324 mg/mL (≈ 95.5 µM).
Compound `N#C/C(=C\C=C\c1ccccc1)C(=O)NCc1ccco1` returned a solubility (kinetic) of 0.0063 mg/mL (≈ 22.6 µM).
In turn, `Cc1ccc2oc(C(=O)Nc3cc(C)on3)c(C)c2c1` gave a solubility (kinetic) of 0.0012 mg/mL (≈ 4.44 µM).
Consider `O=C(OCC(=O)c1ccc[nH]1)c1ccc2ccccc2n1`, for which the kinetic solubility was determined as 0.03 mg/mL (≈ 107 µM). This solubility kinetic is about 25-fold higher than that of the compound before.
The compound `CSc1nc(N)cc(=O)[nH]1` had a kinetic solubility of over 0.0236 mg/mL.
`CC(=O)c1ccc(NC(=O)C(C)NCc2ccccc2Cl)cc1` (configuration not stated): the kinetic solubility was 0.0383 mg/mL (≈ 116 µM).
`CC(=O)N(Cc1cc(=O)[nH]c2ccccc12)c1ccc(C)cc1C` showed a kinetic solubility of over 0.0481 mg/mL.
Compound `Cc1cc(-c2csc(Nc3ccccn3)n2)ccc1F` gave a kinetic solubility of under 0.0002 mg/mL.
The result for `Cc1ccc(S(=O)(=O)N2CCCC(C(=O)NC3CC3)C2)cc1` (configuration not stated) reads 0.0462 mg/mL (≈ 143 µM).
In the case of `O=C1CC(=O)N(c2ccc(Cl)cc2)C(=O)N1`, the solubility (kinetic) was over 0.0358 mg/mL.
In the case of `O=c1oc2ccccc2c(Nc2ccc(Cl)cc2)c1[N+](=O)[O-]`, the kinetic solubility is 0.0009 mg/mL (≈ 2.84 µM).
On to `CCCCCCC(Cl)(Cn1ccnc1)c1ccccc1.O=[N+]([O-])O` (configuration not stated), for which the kinetic solubility amounted to 0.0353 mg/mL.
Turning to `CC(C)c1nc(SCC(=O)Nc2cccc3ccccc23)n[nH]1`, the solubility (kinetic) was over 0.049 mg/mL.
In turn, `C/C(=C\c1ccc(N)cc1)c1nc2ccccc2[nH]1` displayed a solubility (kinetic) of over 0.0374 mg/mL.
Take `O=C(Cc1ccc(Cl)cc1)Nc1ccc(Br)cn1`: the kinetic solubility worked out at 0.0014 mg/mL (≈ 4.3 µM).
Take `COC(=O)c1ccc(C(=O)OC)c(NC(=O)C2CCCO2)c1` (configuration not stated): the kinetic solubility is 0.0453 mg/mL (≈ 147 µM).
Compound `CS(=O)(=O)N(CC(=O)N1CCOCC1)c1ccccc1` came in with a kinetic solubility of over 0.0448 mg/mL.
`CC(=O)Nc1cccc(-c2nc3ccccc3o2)c1` came in with a solubility (kinetic) of 0.0063 mg/mL (≈ 25 µM).
For the compound `Cc1ccc(-c2nc(C(=O)O)cs2)cc1`, the solubility (kinetic) is 0.0295 mg/mL (≈ 135 µM). Compared with the last compound, the solubility kinetic is about 4.7-fold higher.
Consider `CC(C)(C)c1ccc(OCC(=O)Nc2ccncc2)cc1`, for which the kinetic solubility worked out at 0.0037 mg/mL (≈ 13 µM).
Regarding `COc1cc2c(cc1OC)C(c1cc([N+](=O)[O-])ccc1O)NCC2` (configuration not stated), the kinetic solubility is over 0.0496 mg/mL.
`N/C(=N\O)c1cn(Cc2ccccc2Cl)c2ccccc12` displayed a solubility (kinetic) of 0.0394 mg/mL (≈ 131 µM).
Consider `COc1ccc(CC(=O)N2CCN(c3cccc(Cl)c3)CC2)cc1OC`, for which the kinetic solubility was found to be 0.0487 mg/mL (≈ 130 µM).
As for `O=C(NC(=S)Nc1ccc(Cl)c(C(=O)O)c1)c1ccco1`, the solubility (kinetic) is over 0.0487 mg/mL.
Compound `Cc1ccc(C)n1Cc1ccccc1Cl` showed a solubility (kinetic) of 0.0012 mg/mL (≈ 5.46 µM).
`O=C(Cc1ccccc1)NNC(=S)NC(=O)c1cccnc1` displayed a kinetic solubility of over 0.0472 mg/mL.
Turning to `OC(CN1CC=C(c2ccccc2)CC1)c1ccccc1` (configuration not stated), the kinetic solubility worked out at 0.0408 mg/mL (≈ 146 µM).
The compound `O=C(COC(=O)/C=C/c1ccc(C(F)(F)F)cc1)NC1CCCC1` came in with a kinetic solubility of under 0.0007 mg/mL.
The compound `O=C(Cc1cc2ccccc2o1)NCc1ccc(F)cc1` displayed a kinetic solubility of 0.005 mg/mL (≈ 17.6 µM).
Under `C=CCN1C(=O)C(C)NC1=S` (configuration not stated) stands over 0.0255 mg/mL; under `Cc1cc(C(=O)N2CCc3ccccc3C2)no1`, over 0.0363 mg/mL; under `Cc1ccc(CNC(=O)CCSCc2ccccc2C)cc1`, 0.0065 mg/mL (≈ 20.7 µM).
For the compound `Cn1ncc(C(=O)Nc2ccc(Cl)cc2)c1C(F)(F)F`, the kinetic solubility is over 0.0456 mg/mL.
For `O=C(O)c1cc(-c2cccs2)nc2ccc(Br)cc12`, the solubility (kinetic) is over 0.0501 mg/mL.
Under `CN1CCC(NC(=O)c2cccc(Oc3ccccc3)c2)CC1` stands over 0.0466 mg/mL.
Regarding `O=C(COc1cccc(Cl)c1Cl)NC1CC1`, the kinetic solubility was over 0.039 mg/mL.
